Test results published in the NIST ThermoML archive (doi:10.1021/je500498m).

Assay: xn = mol fraction of the nth substance listed
Details: Liquid; for mass density / viscosity: 101 kPa; for mass density: Vibrating tube method; for speed of sound: 100 kPa, Sing-around technique in a fixed-path interferometer; for viscosity: Falling or rolling sphere viscometry

CCCCCCCCCCCCCCCC [hexadecane] + Cc1ccccc1
Details	mass density [kg/m3]	speed of sound [m/s]	viscosity [mPa·s]
323.15 K, x2 = 0.4001	767.89	–	–
323.15 K, x2 = 0.5	773.64	–	–
323.15 K, x2 = 0.6001	780.71	–	–
323.15 K, x2 = 0.7005	789.6	–	–
323.15 K, x2 = 0.8001	801.12	–	–
323.15 K, x2 = 0.8999	816.6	–	–
333.15 K, x2 = 0	745.79	1212	1.54
333.15 K, x2 = 0.1002	748.7	1207.1	1.4
333.15 K, x2 = 0.2	752	1201.7	1.27
333.15 K, x2 = 0.3018	756	1196	1.15
333.15 K, x2 = 0.4001	760.53	1189.2	1.03
333.15 K, x2 = 0.5	766.1	1182.7	0.9
333.15 K, x2 = 0.6001	772.93	1175.6	0.79
333.15 K, x2 = 0.7005	781.29	1168.2	0.67
333.15 K, x2 = 0.8001	792.74	1161.7	0.56
333.15 K, x2 = 0.8999	807.75	1156.7	0.47
343.15 K, x2 = 0	738.9	–	1.31
343.15 K, x2 = 0.1002	741.7	–	1.21
343.15 K, x2 = 0.2	744.9	–	1.1
343.15 K, x2 = 0.3018	748.9	–	1
343.15 K, x2 = 0.4001	753.2	–	0.89
343.15 K, x2 = 0.5	758.6	–	0.8
343.15 K, x2 = 0.6001	765.2	–	0.69
343.15 K, x2 = 0.7005	773.6	–	0.6
343.15 K, x2 = 0.8001	784.3	–	0.51
343.15 K, x2 = 0.8999	798.8	–	0.43
353.15 K, x2 = 0	731.8	–	1.13
353.15 K, x2 = 0.1002	734.5	–	1.05
353.15 K, x2 = 0.2	737.7	–	0.96
353.15 K, x2 = 0.3018	741.4	–	0.87
353.15 K, x2 = 0.4001	745.7	–	0.79
353.15 K, x2 = 0.5	750.9	–	0.7
353.15 K, x2 = 0.6001	757.2	–	0.61
353.15 K, x2 = 0.7005	765.3	–	0.54
353.15 K, x2 = 0.8001	775.7	–	0.46
353.15 K, x2 = 0.8999	789.7	–	0.39
363.15 K, x2 = 0	724.7	–	0.99
363.15 K, x2 = 0.1002	727.3	–	0.92
363.15 K, x2 = 0.2	730.4	–	0.85
363.15 K, x2 = 0.3018	733.9	–	0.77
363.15 K, x2 = 0.4001	738	–	0.7
363.15 K, x2 = 0.5	743.1	–	0.62
363.15 K, x2 = 0.6001	749.2	–	0.55
363.15 K, x2 = 0.7005	756.9	–	0.48
363.15 K, x2 = 0.8001	767	–	0.4
363.15 K, x2 = 0.8999	780.4	–	0.33
373.15 K, x2 = 0	717.5	–	0.87
373.15 K, x2 = 0.1002	720	–	0.81
373.15 K, x2 = 0.2	722.9	–	0.76
373.15 K, x2 = 0.3018	726.3	–	0.69
373.15 K, x2 = 0.4001	730.3	–	0.64
373.15 K, x2 = 0.5	735.1	–	0.56
373.15 K, x2 = 0.6001	741	–	–
373.15 K, x2 = 0.7005	748.5	–	–
373.15 K, x2 = 0.8001	758	–	–
